According to article PMC4904262 (ACS Medicinal Chemistry Letters, 2016):

Experiments:
Settings in all cases: 1 µM, ATP at Km
JAK3 = JAK3 (Homo sapiens, UniProt P52333)
SGK = SGK (Homo sapiens, UniProt O00141)
DYRK2 = DYRK2 (Homo sapiens, UniProt Q92630)
FLT1 = FLT1 (Homo sapiens, UniProt P17948)
SAPK4 = SAPK4 (Homo sapiens, UniProt O15264)
EEF-2K = EEF-2K (Homo sapiens, UniProt O00418)
EPHB3 = EPHB3 (Homo sapiens, UniProt P54753)
IKKBETA = IKKBETA (Homo sapiens, UniProt O14920)
MLCK = system: MLCK
TAO1 = TAO1 (Homo sapiens, UniProt Q7L7X3)
TAO1, sequence (Q7L7X3 whole entry): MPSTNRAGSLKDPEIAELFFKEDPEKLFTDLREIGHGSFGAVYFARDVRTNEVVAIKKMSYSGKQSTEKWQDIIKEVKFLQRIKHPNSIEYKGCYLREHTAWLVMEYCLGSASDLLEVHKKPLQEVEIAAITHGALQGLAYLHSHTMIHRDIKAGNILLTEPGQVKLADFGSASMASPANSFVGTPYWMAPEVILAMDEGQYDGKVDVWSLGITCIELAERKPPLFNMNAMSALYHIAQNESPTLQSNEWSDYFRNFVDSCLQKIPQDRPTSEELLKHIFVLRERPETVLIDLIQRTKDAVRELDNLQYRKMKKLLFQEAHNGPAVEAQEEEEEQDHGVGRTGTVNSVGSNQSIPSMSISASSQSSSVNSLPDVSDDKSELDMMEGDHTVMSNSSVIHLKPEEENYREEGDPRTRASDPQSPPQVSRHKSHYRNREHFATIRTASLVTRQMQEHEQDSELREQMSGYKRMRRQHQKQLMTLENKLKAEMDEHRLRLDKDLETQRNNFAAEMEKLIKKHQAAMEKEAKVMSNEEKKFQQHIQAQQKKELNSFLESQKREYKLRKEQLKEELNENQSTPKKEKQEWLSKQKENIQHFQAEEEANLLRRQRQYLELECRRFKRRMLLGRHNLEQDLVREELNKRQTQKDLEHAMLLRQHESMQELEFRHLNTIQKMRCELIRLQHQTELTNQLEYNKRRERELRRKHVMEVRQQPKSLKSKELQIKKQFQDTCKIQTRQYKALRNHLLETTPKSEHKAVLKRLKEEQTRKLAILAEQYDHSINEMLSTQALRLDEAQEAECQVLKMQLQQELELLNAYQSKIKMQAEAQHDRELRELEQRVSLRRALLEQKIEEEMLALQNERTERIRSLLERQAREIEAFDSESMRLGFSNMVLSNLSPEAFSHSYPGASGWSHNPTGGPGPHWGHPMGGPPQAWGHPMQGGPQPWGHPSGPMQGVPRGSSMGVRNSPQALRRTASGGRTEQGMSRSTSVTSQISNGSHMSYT

VRK2 = VRK2 (Homo sapiens, UniProt Q86Y07)
PKCIOTA = PKCIOTA (Homo sapiens, UniProt P41743)
EPHA2 = EPHA2 (Homo sapiens, UniProt P29317)
MARK1 = MARK1 (Homo sapiens, UniProt Q9P0L2)
MST1 = MST1 (Homo sapiens, UniProt Q13043)
PDGFRBETA = PDGFRBETA (Homo sapiens, UniProt P09619)
LYN = LYN (Homo sapiens, UniProt P07948)
IGF-1R = IGF-1R (Homo sapiens, UniProt P08069)
TSSK1 = TSSK1 (Homo sapiens, UniProt Q9BXA7)
EPHA1 = EPHA1 (Homo sapiens, UniProt P21709)
IRAK4 = IRAK4 (Homo sapiens, UniProt Q9NWZ3)
IRAK4, sequence (Q9NWZ3 whole entry): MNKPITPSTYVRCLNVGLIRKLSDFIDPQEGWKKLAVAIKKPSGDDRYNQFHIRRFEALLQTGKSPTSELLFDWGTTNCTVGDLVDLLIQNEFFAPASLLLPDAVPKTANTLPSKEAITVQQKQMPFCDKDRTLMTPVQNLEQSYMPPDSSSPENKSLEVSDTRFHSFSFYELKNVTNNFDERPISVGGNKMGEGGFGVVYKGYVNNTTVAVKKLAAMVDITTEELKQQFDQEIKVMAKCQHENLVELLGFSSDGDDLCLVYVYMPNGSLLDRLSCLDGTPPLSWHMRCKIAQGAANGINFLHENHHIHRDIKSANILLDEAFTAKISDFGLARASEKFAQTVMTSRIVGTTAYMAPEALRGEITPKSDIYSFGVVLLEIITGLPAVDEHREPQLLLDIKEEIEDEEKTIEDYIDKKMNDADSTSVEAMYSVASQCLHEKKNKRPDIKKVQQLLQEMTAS

TAO2 = TAO2 (Homo sapiens, UniProt Q9UL54)
PEK = PEK (Homo sapiens, UniProt Q9NZJ5)
CHK2 = CHK2 (Homo sapiens, UniProt O96017)
SGK2 = SGK2 (Homo sapiens, UniProt Q9HBY8)
[…] [1] = molecular target: […] (Homo sapiens, UniProt Q13555)
FGFR2 = FGFR2 (Homo sapiens, UniProt P21802)
ARG = ARG (Homo sapiens, UniProt P42684)
HIPK3 = HIPK3 (Homo sapiens, UniProt Q9H422)
ROCK-II = ROCK-II (Homo sapiens, UniProt O75116)
ROCK-II, sequence (O75116 whole entry): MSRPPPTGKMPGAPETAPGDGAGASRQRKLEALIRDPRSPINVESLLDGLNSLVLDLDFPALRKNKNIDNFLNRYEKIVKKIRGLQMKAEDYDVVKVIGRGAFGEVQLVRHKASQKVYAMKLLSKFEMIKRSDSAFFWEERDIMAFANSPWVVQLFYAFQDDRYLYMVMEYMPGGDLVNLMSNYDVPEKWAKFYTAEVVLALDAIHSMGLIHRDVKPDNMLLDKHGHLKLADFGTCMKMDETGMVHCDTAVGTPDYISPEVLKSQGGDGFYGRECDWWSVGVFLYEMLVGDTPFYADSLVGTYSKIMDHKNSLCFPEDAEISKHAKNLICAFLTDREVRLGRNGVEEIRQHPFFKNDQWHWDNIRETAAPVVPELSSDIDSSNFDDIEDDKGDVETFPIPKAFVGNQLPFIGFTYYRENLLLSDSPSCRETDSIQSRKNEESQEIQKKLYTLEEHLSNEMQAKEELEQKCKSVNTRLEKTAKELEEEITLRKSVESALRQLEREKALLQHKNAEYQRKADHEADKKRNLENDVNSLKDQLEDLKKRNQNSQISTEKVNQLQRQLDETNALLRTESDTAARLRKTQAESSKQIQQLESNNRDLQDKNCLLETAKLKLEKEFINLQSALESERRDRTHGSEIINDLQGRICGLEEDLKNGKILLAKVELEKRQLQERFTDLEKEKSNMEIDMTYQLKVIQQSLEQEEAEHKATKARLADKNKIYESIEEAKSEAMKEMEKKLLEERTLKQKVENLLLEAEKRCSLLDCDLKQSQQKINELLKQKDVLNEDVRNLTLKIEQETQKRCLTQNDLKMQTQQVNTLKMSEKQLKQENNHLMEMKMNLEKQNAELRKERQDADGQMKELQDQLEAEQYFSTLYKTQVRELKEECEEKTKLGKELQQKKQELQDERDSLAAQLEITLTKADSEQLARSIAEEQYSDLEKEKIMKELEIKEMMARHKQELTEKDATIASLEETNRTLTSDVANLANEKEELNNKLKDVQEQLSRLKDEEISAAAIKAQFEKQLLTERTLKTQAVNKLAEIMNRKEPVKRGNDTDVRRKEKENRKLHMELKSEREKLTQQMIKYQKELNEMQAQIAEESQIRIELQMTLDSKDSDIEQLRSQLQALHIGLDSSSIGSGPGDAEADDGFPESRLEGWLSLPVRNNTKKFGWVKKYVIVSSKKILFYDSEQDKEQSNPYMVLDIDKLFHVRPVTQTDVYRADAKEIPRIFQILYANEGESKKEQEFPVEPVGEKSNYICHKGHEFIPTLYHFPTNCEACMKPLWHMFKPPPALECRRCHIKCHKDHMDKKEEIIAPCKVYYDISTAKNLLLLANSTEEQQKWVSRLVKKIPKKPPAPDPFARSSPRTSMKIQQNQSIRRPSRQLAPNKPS

PYK2 = PYK2 (Homo sapiens, UniProt Q14289)
ROCK-I = ROCK-I (Homo sapiens, UniProt Q13464)
DDR2 = DDR2 (Homo sapiens, UniProt Q16832)
PKG1BETA = PKG1BETA (Homo sapiens, UniProt Q13976)
IKKALPHA = IKKALPHA (Homo sapiens, UniProt O15111)
IKKALPHA, sequence (O15111 whole entry): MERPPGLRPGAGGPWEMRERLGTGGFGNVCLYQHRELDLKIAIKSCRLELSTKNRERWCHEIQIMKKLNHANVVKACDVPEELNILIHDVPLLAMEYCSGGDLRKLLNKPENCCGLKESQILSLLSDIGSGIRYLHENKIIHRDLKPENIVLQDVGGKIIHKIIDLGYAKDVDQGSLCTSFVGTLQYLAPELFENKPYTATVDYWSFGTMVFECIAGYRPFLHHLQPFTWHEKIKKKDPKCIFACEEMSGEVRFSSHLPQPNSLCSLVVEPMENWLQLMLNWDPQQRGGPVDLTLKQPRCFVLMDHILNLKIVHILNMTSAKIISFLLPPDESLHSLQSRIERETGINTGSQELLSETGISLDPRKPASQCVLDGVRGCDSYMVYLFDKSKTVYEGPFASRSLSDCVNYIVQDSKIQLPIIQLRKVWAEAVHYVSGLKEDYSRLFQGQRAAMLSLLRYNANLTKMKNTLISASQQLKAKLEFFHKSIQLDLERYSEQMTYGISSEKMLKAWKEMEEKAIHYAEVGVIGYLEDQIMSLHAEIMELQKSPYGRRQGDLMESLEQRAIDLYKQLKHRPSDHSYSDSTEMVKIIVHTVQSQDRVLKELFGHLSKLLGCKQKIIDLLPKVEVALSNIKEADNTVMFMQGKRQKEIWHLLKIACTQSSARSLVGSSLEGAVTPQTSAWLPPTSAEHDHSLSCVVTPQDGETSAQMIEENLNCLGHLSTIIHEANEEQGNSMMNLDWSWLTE

IRAK1 = IRAK1 (Homo sapiens, UniProt P51617)
IRAK1, sequence (P51617 whole entry): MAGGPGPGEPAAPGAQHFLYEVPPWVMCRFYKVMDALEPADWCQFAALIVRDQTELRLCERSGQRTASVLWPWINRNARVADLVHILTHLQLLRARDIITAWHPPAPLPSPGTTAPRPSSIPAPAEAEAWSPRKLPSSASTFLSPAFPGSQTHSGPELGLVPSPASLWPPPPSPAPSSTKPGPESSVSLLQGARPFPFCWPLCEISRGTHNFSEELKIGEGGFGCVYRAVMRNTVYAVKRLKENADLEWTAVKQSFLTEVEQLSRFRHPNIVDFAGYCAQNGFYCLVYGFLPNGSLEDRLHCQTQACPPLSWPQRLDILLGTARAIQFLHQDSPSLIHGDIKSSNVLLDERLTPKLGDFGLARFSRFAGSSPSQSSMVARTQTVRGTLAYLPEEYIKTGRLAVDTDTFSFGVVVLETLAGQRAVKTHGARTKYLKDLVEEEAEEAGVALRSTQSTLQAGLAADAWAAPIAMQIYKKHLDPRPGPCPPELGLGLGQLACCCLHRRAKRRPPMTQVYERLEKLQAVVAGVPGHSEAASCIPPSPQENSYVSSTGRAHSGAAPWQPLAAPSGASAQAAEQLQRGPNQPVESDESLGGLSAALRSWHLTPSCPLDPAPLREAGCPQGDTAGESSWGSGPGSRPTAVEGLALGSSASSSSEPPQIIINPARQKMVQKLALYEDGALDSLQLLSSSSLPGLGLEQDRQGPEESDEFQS

[…] [2] = molecular target: […] (Homo sapiens, UniProt P16234)
FLT3 = FLT3 (Homo sapiens, UniProt P36888)
PKCBII = PKCBII (Homo sapiens, UniProt P05771)
PKCBII, sequence (P05771 1-673 isoform P05771-2): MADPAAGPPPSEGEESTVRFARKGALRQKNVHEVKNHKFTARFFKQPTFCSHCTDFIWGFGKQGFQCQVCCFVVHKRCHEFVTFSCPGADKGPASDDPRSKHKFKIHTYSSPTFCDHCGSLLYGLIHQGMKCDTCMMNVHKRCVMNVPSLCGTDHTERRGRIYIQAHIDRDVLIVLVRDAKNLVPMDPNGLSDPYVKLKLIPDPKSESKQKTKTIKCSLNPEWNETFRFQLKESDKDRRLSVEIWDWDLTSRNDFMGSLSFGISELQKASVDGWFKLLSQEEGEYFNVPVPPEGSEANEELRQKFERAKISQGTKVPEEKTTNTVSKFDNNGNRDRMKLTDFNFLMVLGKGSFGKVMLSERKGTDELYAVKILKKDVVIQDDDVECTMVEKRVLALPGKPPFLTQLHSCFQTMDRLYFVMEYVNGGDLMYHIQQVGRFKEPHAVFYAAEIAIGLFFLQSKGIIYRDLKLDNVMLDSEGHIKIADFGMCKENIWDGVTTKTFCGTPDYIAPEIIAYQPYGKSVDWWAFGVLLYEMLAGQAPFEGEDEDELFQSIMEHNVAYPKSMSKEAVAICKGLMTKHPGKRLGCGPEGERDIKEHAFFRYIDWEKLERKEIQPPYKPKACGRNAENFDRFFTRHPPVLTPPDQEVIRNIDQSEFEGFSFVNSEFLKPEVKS

YES = YES (Homo sapiens, UniProt P07947)
MSSK1 = MSSK1 (Homo sapiens, UniProt Q9UPE1)
PAR-1BALPHA = PAR-1BALPHA (Homo sapiens, UniProt Q7KZI7)
HASPIN = HASPIN (Homo sapiens, UniProt Q8TF76)
FER = FER (Homo sapiens, UniProt P16591)
RSK4 = RSK4 (Homo sapiens, UniProt Q9UK32)

`COC1CN(C(=O)c2ccc3c(N)ncc(-c4ccc(-c5cnn(C)c5)cc4)c3n2)C1` [Compound 51] showed a percentage effect (JAK3) of 2%, a percentage effect (SGK) of 14% and a percentage effect (DYRK2) of -6%. It also gave a percentage effect (FLT1) of -9%, a percentage effect (SAPK4) of 2% and a percentage effect (EEF-2K) of 2%. It also gave a percentage effect (EPHB3) of 2%, a percentage effect (IKKBETA) of -14% and a percentage effect (MLCK) of 0%. It also gave a percentage effect (TAO1) of -1%, a percentage effect (VRK2) of 4% and a percentage effect (PKCIOTA) of -16%. The percentage effect (EPHA2) was -12%, the percentage effect (MARK1) was -5% and the percentage effect (MST1) was 9%. It also gave a percentage effect (PDGFRBETA) of 2%, a percentage effect (LYN) of -1% and a percentage effect (IGF-1R) of 19%. The percentage effect (TSSK1) was 5%, the percentage effect (EPHA1) was 7% and the percentage effect (IRAK4) was -9%. It also gave a percentage effect (TAO2) of -5%, a percentage effect (PEK) of -6% and a percentage effect (CHK2) of -1%. The percentage effect (SGK2) was -46%, the percentage effect ([…] [1]) was 5% and the percentage effect (FGFR2) was -3%. For the same compound, the percentage effect (ARG) was 11%, the percentage effect (HIPK3) was 6% and the percentage effect (ROCK-II) was -2%. It also gave a percentage effect (PYK2) of -4%, a percentage effect (ROCK-I) of 32% and a percentage effect (DDR2) of 6%. The percentage effect (PKG1BETA) was 1%, the percentage effect (IKKALPHA) was -17% and the percentage effect (IRAK1) was 8%. The percentage effect ([…] [2]) was -3%, the percentage effect (FLT3) was 0% and the percentage effect (PKCBII) was -4%. For the same compound, the percentage effect (YES) was -22%, the percentage effect (MSSK1) was 7% and the percentage effect (PAR-1BALPHA) was -9%. The percentage effect (HASPIN) was -7%, the percentage effect (FER) was -18% and the percentage effect (RSK4) was 9%.

`COC1CN(C(=O)c2ccc3c(N)ncc(-c4ccc(-c5cnn(C)c5)cc4)c3c2)C1` [Compound 59] was tested, and the percentage effect (JAK3) was 14%, the percentage effect (SGK) was 14% and the percentage effect (DYRK2) was -9%. It also gave a percentage effect (FLT1) of -15%, a percentage effect (SAPK4) of -13% and a percentage effect (EEF-2K) of 8%. The percentage effect (EPHB3) was -10%, the percentage effect (IKKBETA) was 8% and the percentage effect (MLCK) was -20%. For the same compound, the percentage effect (TAO1) was 9%, the percentage effect (VRK2) was -3% and the percentage effect (PKCIOTA) was 2%. The percentage effect (EPHA2) was 7%, the percentage effect (MARK1) was -14% and the percentage effect (MST1) was -10%. For the same compound, the percentage effect (PDGFRBETA) was 17%, the percentage effect (LYN) was 0% and the percentage effect (IGF-1R) was 9%. For the same compound, the percentage effect (TSSK1) was -14%, the percentage effect (EPHA1) was 4% and the percentage effect (IRAK4) was 1%. For the same compound, the percentage effect (TAO2) was -7%, the percentage effect (PEK) was 1% and the percentage effect (CHK2) was -10%. It also gave a percentage effect (SGK2) of 38%, a percentage effect ([…] [1]) of 2% and a percentage effect (FGFR2) of -6%. It also gave a percentage effect (ARG) of -7%, a percentage effect (HIPK3) of 4% and a percentage effect (ROCK-II) of -12%. For the same compound, the percentage effect (PYK2) was -1%, the percentage effect (ROCK-I) was 2% and the percentage effect (DDR2) was 24%. For the same compound, the percentage effect (PKG1BETA) was 1%, the percentage effect (IKKALPHA) was 28% and the percentage effect (IRAK1) was 14%. It also gave a percentage effect ([…] [2]) of 11%, a percentage effect (FLT3) of 16% and a percentage effect (PKCBII) of -3%. It also gave a percentage effect (YES) of -18%, a percentage effect (MSSK1) of 13% and a percentage effect (PAR-1BALPHA) of -4%. The percentage effect (HASPIN) was -12%, the percentage effect (FER) was 3% and the percentage effect (RSK4) was 13%.
